Data taken from publication PMC8453943 (Clinical Pharmacology in Drug Development, 2021).
Like-named read-outs stand apart in the source and are kept apart here.

Key:
[1] = Part 1 single-ascending-dose study, plasma PK; assay type: in vivo, human; conditions: for Tmax: human, plasma, po; for CL/F, Geometric mean (% CV) / CL/F, Mean (SD): fasted
[2] = Part 1 single-ascending-dose study, urine PK; assay type: in vivo, human; conditions: within 48 hours, across all dose groups
[3] = Part 2 effect of a low-fat meal on PK; assay type: in vivo, human; conditions: for AUC(0-inf) / Cmax / Tmax: human, plasma, oral; for Tmax: Median (range)
[4] = Part 3 relative bioavailability of capsule B vs capsule A; assay type: in vivo, human
[5] = Safety and tolerability assessments; assay type: in vivo, human
[6] = Dose proportionality, power model on pooled exposure data; assay type: in vivo, human; conditions: 40- to 160-mg dose range, pooled parts 1-3
[7] = cited from earlier work
CYP3A4/5 = conditions: recombinant human CYPs, in vitro; cited from earlier work
[8] = repeat dosing, animals; dermal and gastrointestinal toxicities; cited from earlier work
[9] = in vitro assays; cited from earlier work
[10] = cited from earlier work; remark: listed apart in the source
[11] = preclinical studies; cited from earlier work
[12] = part 1, 120 mg single oral dose
[13] = part 1, 160 mg single oral dose
[14] = 120 mg, Geometric mean (% CV), part 2, 120 mg, fasted
[15] = 120 mg, Geometric mean (% CV), part 2, 120 mg, low-fat meal
[16] = 120 mg, Mean (SD), part 2, 120 mg, fasted
[17] = 120 mg, Mean (SD), part 2, 120 mg, low-fat meal
[18] = 160 mg, Geometric mean (% CV), part 2, 160 mg, fasted
[19] = 160 mg, Geometric mean (% CV), part 2, 160 mg, low-fat meal
[20] = 160 mg, Mean (SD), part 2, 160 mg, fasted
[21] = 160 mg, Mean (SD), part 2, 160 mg, low-fat meal
[22] = part 2, 120 mg, low-fat meal (test) vs fasted (reference)
[23] = part 3, 160 mg, fasted, capsule B (test) vs capsule A (reference)
[24] = AEs in ≥10% of volunteers in any part
[25] = part 1, overall (N = 40, includes pooled placebo)
[26] = part 2, 120 mg, low-fat meal (n = 6)
[27] = part 2, 160 mg, fasted (n = 10)
[28] = part 2, 160 mg, low-fat meal (n = 10)
[29] = part 3, mobocertinib 160 mg, overall (N = 13)

## C=CC(=O)Nc1cc(Nc2ncc(C(=O)OC(C)C)c(-c3cn(C)c4ccccc34)n2)c(OC)cc1N(C)CCN(C)C [Mobocertinib]
[1]
  Tmax: 4 to 6 h
[1]; 80 mg
  Tmax: 4 h
[1]; 120 mg
  Tmax: 6 h
[1]; 160 mg
  Tmax: 6 h
[1]; part 1, 20 mg mobocertinib cohort
  Time for which analyte was quantifiable in plasma: up to 72 hours
[1]; part 1, 20 mg single oral dose
  CL/F, Geometric mean (% CV): 314 (11.9) L/h
  CL/F, Mean (SD): 316 (37.5) L/h
[1]; part 1, 40 mg mobocertinib cohort
  Time for which analyte was quantifiable in plasma: ≤ 96 h
[1]; part 1, 40 mg single oral dose
  CL/F, Geometric mean (% CV): 249 (49.5) L/h
  CL/F, Mean (SD): 283 (140.1) L/h
[1]; part 1, 80 mg mobocertinib cohort
  Time for which analyte was quantifiable in plasma: ≤ 96 h
[1]; part 1, 80 mg single oral dose
  CL/F, Geometric mean (% CV): 312 (72.0) L/h
  CL/F, Mean (SD): 378 (272.2) L/h
[1]; part 1, 120 mg mobocertinib cohort
  Time for which analyte was quantifiable in plasma: ≤ 96 h
[1]; [12]
  CL/F, Geometric mean (% CV): 263 (56.9) L/h
  CL/F, Mean (SD): 292 (166.2) L/h
[1]; part 1, 160 mg mobocertinib cohort
  Time for which analyte was quantifiable in plasma: ≤ 168 h
[1]; [13]
  CL/F, Geometric mean (% CV): 157 (33.2) L/h
  CL/F, Mean (SD): 168 (55.7) L/h
[2]
  Administered mobocertinib dose excreted unchanged in urine: < 1.2%
[3]; [14]
  AUC(0-inf): 526 ng·h/mL
  Cmax: 31.2 ng/mL
[3]; [15]
  AUC(0-inf): 534 ng·h/mL
  Cmax: 27.5 ng/mL
[3]; [16]
  AUC(0-inf): 587 ng·h/mL
  Cmax: 35.5 ng/mL
[3]; [17]
  AUC(0-inf): 578 ng·h/mL
  Cmax: 29.5 ng/mL
[3]; 120 mg, part 2, 120 mg, fasted
  Tmax: 4 h
[3]; 120 mg, part 2, 120 mg, low-fat meal
  Tmax: 6 h
[3]; [18]
  AUC(0-inf): 743 ng·h/mL
  Cmax: 41 ng/mL
[3]; [19]
  AUC(0-inf): 706 ng·h/mL
  Cmax: 39.5 ng/mL
[3]; [20]
  AUC(0-inf): 862 ng·h/mL
  Cmax: 45.8 ng/mL
[3]; [21]
  AUC(0-inf): 768 ng·h/mL
  Cmax: 43 ng/mL
[3]; 160 mg, part 2, 160 mg, fasted
  Tmax: 6 h
[3]; 160 mg, part 2, 160 mg, low-fat meal
  Tmax: 6 h
[3]; mobocertinib and its active metabolites
  Effect of a low-fat meal on PK: did not affect the PK
[3]; [22]
  AUC∞, Geometric LS Mean Ratio (90%CI): 1.02 (0.90‐1.15)
  Cmax, Geometric LS Mean Ratio (90%CI): 0.88 (0.71‐1.09)
[3]; part 2, 160 mg, low-fat meal (test) vs fasted (reference)
  Cmax, Geometric LS Mean Ratio (90%CI): 0.96
[3]; part 2, 120 and 160 mg, low-fat meal and fasted
  Time for which mean plasma concentrations were quantifiable: up to 168 hours
[4]; human, plasma, oral, 160 mg
  Tmax: 5 to 6 h
[4]; [23]
  AUC∞, LS Geometric Mean Ratio (90%CI): 0.96
  Cmax, LS Geometric Mean Ratio (90%CI): 0.93
[5]; [24]
  Diarrhea: 10.0%
  Flatulence: 12.5%
  Soft feces: 12.5%
[5]; all parts
  Serious AEs: No serious AEs were reported
[5]; part 1 (includes pooled placebo)
  Volunteers who experienced AEs: 48%
[5]; part 1, 20 mg (n = 6)
  AE leading to discontinuation: 0 n (%)
  Any AE: 2 (33) n (%)
  Grade 1 AE: 2 (33) n (%)
  Grade 2 AE: 0 n (%)
  Grade ≥3 AE: 0 n (%)
  Treatment-related AE: 1 (17) n (%)
[5]; part 1, 40 mg (n = 6)
  AE leading to discontinuation: 0 n (%)
  Any AE: 3 (50) n (%)
  Grade 1 AE: 2 (33) n (%)
  Grade 2 AE: 1 (17) n (%)
  Grade ≥3 AE: 0 n (%)
  Treatment-related AE: 0 n (%)
[5]; part 1, 80 mg (n = 6)
  AE leading to discontinuation: 0 n (%)
  Any AE: 4 (67) n (%)
  Grade 1 AE: 3 (50) n (%)
  Grade 2 AE: 1 (17) n (%)
  Grade ≥3 AE: 0 n (%)
  Treatment-related AE: 3 (50) n (%)
[5]; part 1, 120 mg (n = 6)
  AE leading to discontinuation: 0 n (%)
  Any AE: 3 (50) n (%)
  Grade 1 AE: 1 (17) n (%)
  Grade 2 AE: 2 (33) n (%)
  Grade ≥3 AE: 0 n (%)
  Treatment-related AE: 0 n (%)
[5]; part 1, 160 mg (n = 6)
  AE leading to discontinuation: 0 n (%)
  Any AE: 5 (83) n (%)
  Grade 1 AE: 4 (67) n (%)
  Grade 2 AE: 1 (17) n (%)
  Grade ≥3 AE: 0 n (%)
  Treatment-related AE: 3 (50) n (%)
[5]; part 1, 20-mg dose group
  Decrease in serum creatine kinase: –26.8 U/L
[5]; part 1, 160-mg group
  Decrease in serum creatine kinase: –69.0 U/L
[5]; [25]
  AE leading to discontinuation: 0 n (%)
  Any AE: 19 (48) n (%)
  Grade 1 AE: 14 (35) n (%)
  Grade 2 AE: 5 (13) n (%)
  Grade ≥3 AE: 0 n (%)
  Treatment-related AE: 9 (23) n (%)
[5]; part 2
  Volunteers who experienced AEs: 75%
[5]; part 2, 120 mg, fasted (n = 6)
  AE leading to discontinuation: 0 n (%)
  Any AE: 3 (50) n (%)
  Grade 1 AE: 2 (33) n (%)
  Grade 2 AE: 1 (17) n (%)
  Grade ≥3 AE: 0 n (%)
  Treatment-related AE: 3 (50) n (%)
  Treatment-related AE, Grade ≥3: 0 n (%)
[5]; [26]
  AE leading to discontinuation: 0 n (%)
  Any AE: 3 (50) n (%)
  Grade 1 AE: 2 (33) n (%)
  Grade 2 AE: 0 n (%)
  Grade ≥3 AE: 1 (17) n (%)
  Treatment-related AE: 2 (33) n (%)
  Treatment-related AE, Grade ≥3: 0 n (%)
[5]; [27]
  AE leading to discontinuation: 0 n (%)
  Any AE: 5 (50) n (%)
  Grade 1 AE: 5 (50) n (%)
  Grade 2 AE: 0 n (%)
  Grade ≥3 AE: 0 n (%)
  Treatment-related AE: 5 (50) n (%)
  Treatment-related AE, Grade ≥3: 0 n (%)
[5]; [28]
  AE leading to discontinuation: 0 n (%)
  Any AE: 7 (70) n (%)
  Grade 1 AE: 7 (70) n (%)
  Grade 2 AE: 0 n (%)
  Grade ≥3 AE: 0 n (%)
  Treatment-related AE: 4 (40) n (%)
  Treatment-related AE, Grade ≥3: 0 n (%)
[5]; part 2, overall (N = 16)
  AE leading to discontinuation: 0 n (%)
  Any AE: 12 (75) n (%)
  Grade 1 AE: 11 (69) n (%)
  Grade 2 AE: 0 n (%)
  Grade ≥3 AE: 1 (6) n (%)
  Treatment-related AE: 8 (50) n (%)
  Treatment-related AE, Grade ≥3: 0 n (%)
[5]; part 3
  Volunteers who experienced AEs: 46%
[5]; [29]
  AE leading to discontinuation: 1 (8) n (%)
  Grade 1 AE: 5 (39) n (%)
  Grade 2 AE: 1 (8) n (%)
  Grade ≥3 AE: 0 n (%)
  Treatment-related AE: 2 (15) n (%)
  Volunteers with AEs: 6 (46) n (%)
[5]; single oral dose
  Single doses tolerated in healthy adult volunteers: up to 160 mg
[6]
  Slope (95% CI) of regression of log mobocertinib AUC∞ vs log dose: 1.20 (0.93‐1.46)
[7]; 160 mg once daily, repeat dosing, ref NCT02716116
  Accumulation ratio of AUC0-24, cycle 2 day 1 over cycle 1 day 1: 1.03
[7]; once daily, patients
  Maximum tolerated dose: 160 mg
CYP3A4/5
  Percent contribution of CYP3A4/5 to metabolism: > 90%
[8]
  Maximum tolerated dose: 10 mg/kg
[9]
  Genotoxicity: no evidence of genotoxicity
[10]
  Permeability: high permeability
  Solubility: high solubility
[11]
  Route of elimination: eliminated almost completely through feces
